This is an account of results in ChEMBL document CHEMBL4020786, “Discovery of pyrazolo[1,5-a]pyrimidine-3-carbonitrile derivatives as a new class of histone lysine demethylase 4D (KDM4D) inhibitors” (Bioorg Med Chem Lett, 2017).

Structures are written as SMILES.

In assay [1] the target is T1, Lysine-specific demethylase 4D (Homo sapiens) (UniProt Q6B0I6).
T1 sequence (whole entry): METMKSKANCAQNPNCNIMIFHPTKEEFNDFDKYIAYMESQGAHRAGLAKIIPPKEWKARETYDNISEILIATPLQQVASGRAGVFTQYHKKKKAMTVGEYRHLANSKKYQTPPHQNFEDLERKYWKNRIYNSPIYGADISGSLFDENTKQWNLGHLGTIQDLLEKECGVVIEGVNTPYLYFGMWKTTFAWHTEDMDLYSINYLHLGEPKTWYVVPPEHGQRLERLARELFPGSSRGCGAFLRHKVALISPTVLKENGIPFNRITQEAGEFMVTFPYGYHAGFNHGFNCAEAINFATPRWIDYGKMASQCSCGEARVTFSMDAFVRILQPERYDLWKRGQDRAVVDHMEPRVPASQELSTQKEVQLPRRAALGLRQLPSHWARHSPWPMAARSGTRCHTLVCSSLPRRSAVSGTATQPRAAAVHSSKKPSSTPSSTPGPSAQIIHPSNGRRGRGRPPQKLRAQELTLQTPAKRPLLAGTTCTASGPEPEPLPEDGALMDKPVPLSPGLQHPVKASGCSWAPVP
The experiment in a line: Inhibition of KDM4D (unknown origin) at 10 uM using biotinylated H3 derived peptide as substrate preincubated for 15 mins followed by substrate addition measured after 1 hr by AlphaLISA method. In general terms: In Alpha technology, singlet oxygen from a donor bead excites a nearby acceptor bead.

For assay [2], the target named is Lysine-specific demethylase 5A (Homo sapiens) (UniProt P29375). The experiment in a line: Inhibition of KDM5A (unknown origin) at 10 uM.
Assay [3] has as its target T2, Lysine-specific demethylase 2B (Homo sapiens) (UniProt Q8NHM5).
T2 sequence (whole entry): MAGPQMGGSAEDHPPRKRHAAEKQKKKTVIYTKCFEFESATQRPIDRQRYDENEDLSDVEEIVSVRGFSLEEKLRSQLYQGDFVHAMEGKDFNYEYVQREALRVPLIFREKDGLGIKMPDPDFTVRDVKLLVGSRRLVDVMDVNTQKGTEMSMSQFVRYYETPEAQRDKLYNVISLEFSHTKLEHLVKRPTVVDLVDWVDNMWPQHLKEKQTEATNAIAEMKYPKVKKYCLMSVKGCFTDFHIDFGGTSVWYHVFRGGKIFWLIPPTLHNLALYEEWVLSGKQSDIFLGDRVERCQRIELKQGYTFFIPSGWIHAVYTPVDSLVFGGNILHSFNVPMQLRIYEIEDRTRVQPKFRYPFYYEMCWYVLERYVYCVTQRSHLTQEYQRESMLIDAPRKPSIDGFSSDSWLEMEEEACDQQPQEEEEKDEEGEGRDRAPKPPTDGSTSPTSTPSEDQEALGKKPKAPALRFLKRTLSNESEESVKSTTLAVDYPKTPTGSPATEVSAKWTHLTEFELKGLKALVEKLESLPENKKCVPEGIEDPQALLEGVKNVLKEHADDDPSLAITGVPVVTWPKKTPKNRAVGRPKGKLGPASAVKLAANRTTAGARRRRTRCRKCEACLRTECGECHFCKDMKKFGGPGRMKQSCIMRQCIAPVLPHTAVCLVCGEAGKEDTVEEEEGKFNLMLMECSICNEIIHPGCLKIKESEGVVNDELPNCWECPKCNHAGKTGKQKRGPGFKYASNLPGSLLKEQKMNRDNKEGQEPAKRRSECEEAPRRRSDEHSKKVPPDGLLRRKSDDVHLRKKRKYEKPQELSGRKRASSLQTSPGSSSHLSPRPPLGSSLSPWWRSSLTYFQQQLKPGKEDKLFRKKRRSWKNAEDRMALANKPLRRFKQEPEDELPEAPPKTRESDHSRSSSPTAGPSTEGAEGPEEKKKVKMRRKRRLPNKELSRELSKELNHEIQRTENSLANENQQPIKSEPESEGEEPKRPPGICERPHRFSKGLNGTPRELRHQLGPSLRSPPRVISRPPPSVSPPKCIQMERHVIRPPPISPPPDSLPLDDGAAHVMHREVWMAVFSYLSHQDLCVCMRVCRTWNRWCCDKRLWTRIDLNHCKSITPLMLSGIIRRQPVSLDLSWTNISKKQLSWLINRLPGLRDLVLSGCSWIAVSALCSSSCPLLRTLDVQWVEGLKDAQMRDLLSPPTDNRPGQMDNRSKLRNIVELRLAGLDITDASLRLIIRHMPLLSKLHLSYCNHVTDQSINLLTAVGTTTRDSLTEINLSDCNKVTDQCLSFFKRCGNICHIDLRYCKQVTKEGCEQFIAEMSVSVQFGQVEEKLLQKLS
The assay is described as follows: Inhibition of KDM2B (unknown origin) at 10 uM.

Assay [4] deals with T3, Lysine-specific demethylase 4D (Homo sapiens, UniProt Q6B0I6).
T3 sequence (Q6B0I6 whole entry): T1 sequence (whole entry)
The experiment in a line: Inhibition of KDM4D (unknown origin) using biotinylated H3 derived peptide as substrate preincubated for 15 mins followed by substrate addition measured after 1 hr by AlphaLISA method.

Assay [5] concerns the target Lysine-specific demethylase 3B (Homo sapiens) (UniProt Q7LBC6). The experiment in a line: Inhibition of KDM3B (unknown origin) at 10 uM.

Chain of Lysine-specific demethylase 3B (Homo sapiens) (Q7LBC6 whole entry): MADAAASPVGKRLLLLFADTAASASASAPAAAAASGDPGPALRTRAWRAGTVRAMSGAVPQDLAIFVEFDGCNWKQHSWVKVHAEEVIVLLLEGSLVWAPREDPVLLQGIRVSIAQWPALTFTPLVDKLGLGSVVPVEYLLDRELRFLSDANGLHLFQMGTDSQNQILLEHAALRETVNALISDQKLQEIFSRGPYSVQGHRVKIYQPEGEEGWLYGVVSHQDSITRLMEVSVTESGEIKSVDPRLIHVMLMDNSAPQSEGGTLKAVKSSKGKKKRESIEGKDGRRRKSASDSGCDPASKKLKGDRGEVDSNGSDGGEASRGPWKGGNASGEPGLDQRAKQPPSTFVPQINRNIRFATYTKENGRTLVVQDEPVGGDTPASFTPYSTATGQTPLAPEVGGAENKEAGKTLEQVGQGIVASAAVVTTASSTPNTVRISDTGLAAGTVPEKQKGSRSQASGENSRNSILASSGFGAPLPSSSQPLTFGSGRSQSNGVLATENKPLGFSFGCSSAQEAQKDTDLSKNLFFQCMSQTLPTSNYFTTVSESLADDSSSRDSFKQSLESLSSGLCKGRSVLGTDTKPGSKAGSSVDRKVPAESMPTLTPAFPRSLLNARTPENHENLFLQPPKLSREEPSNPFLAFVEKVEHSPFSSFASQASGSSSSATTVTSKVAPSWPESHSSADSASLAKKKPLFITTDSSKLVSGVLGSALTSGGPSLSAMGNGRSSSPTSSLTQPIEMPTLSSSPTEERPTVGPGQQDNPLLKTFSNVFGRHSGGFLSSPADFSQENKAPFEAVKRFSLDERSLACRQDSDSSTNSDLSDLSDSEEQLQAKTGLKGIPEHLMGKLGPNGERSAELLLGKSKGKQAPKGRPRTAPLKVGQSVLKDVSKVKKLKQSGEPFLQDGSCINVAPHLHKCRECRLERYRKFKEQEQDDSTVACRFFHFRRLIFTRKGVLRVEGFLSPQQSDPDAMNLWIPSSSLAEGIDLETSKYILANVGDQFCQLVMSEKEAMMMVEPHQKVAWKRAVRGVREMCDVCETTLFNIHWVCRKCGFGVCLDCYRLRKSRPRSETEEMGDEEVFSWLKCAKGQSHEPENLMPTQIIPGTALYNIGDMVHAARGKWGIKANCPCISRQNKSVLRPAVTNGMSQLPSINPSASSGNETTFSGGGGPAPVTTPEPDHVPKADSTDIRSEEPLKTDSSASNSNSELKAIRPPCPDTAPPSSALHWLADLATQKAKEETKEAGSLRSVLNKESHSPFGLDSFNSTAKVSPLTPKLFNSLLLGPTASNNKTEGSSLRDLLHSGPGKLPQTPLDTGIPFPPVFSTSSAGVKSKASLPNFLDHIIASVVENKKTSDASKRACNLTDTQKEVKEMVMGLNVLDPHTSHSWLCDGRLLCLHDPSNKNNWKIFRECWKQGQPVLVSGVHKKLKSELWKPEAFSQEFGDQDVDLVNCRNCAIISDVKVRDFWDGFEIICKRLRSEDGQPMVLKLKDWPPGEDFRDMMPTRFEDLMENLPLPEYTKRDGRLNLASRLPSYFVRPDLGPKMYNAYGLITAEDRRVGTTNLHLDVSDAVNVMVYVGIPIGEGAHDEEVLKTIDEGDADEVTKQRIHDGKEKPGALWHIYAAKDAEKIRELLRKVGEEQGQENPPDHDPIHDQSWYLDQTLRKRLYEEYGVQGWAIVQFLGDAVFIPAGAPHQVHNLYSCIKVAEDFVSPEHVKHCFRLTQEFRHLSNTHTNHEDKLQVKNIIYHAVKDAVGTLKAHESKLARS
Chain of Lysine-specific demethylase 5A (Homo sapiens) (P29375 whole entry): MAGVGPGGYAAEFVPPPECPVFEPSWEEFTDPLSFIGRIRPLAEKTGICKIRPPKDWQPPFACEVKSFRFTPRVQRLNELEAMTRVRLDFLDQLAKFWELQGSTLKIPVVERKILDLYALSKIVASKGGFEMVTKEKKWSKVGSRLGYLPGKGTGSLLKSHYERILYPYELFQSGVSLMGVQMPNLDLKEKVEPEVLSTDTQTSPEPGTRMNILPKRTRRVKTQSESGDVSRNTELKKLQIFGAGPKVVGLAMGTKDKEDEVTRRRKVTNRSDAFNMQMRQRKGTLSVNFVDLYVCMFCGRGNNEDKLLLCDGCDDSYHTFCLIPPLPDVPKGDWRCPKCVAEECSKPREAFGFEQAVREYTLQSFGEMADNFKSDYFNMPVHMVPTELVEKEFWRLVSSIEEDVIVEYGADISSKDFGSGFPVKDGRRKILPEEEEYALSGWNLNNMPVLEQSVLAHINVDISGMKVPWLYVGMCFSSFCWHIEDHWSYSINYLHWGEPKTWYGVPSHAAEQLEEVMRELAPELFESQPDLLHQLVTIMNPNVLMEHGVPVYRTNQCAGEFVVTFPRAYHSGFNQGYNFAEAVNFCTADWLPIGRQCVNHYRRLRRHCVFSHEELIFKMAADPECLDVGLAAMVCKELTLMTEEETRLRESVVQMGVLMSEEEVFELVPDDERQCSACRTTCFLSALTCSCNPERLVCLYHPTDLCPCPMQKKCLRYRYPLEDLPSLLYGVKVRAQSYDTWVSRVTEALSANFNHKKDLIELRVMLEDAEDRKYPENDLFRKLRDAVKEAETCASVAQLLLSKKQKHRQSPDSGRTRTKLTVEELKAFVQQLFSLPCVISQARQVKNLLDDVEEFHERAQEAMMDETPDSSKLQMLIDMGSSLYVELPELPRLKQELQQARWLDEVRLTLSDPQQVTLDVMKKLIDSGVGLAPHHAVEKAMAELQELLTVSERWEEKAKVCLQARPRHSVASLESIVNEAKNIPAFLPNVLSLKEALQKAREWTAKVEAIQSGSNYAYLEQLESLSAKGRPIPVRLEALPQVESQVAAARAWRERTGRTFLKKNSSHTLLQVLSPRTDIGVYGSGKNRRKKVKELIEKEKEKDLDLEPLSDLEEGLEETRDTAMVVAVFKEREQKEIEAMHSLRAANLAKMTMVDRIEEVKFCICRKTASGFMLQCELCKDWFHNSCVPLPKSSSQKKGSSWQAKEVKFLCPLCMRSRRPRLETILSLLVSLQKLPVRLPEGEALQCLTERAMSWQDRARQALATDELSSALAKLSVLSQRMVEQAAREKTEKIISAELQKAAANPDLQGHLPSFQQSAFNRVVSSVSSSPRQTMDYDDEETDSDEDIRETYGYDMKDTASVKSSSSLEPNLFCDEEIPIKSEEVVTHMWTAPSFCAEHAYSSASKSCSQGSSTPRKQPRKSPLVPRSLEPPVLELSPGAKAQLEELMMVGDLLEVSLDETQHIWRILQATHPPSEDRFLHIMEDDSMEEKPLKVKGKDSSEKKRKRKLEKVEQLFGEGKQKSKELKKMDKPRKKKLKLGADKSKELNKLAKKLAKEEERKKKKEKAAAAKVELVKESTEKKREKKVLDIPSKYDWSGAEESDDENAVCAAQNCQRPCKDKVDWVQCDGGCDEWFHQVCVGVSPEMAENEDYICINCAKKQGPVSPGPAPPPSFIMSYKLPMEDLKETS

Turning to `N#Cc1cnn2c1nc(O)c1ccc(Cl)nc12`, in assay [1], the inhibition (usually the change of the read-out against control, counted positive when it falls) came out at 58.7%.

Regarding `N#Cc1cnn2c1nc(O)c1cccc(C(F)(F)F)c12`, in assay [1], the inhibition is 8.63%.

As to `N#Cc1cnn2c1nc(O)c1cccc(N)c12`, the inhibition in assay [1] stood at 62.3%.

`N#Cc1cnn2c1nc(O)c1cccc([N+](=O)[O-])c12`: the inhibition was 23.1% in assay [2], -4.85% in assay [3], 73.3% in assay [1] and -2.18% in assay [5]. The IC50 – broadly, the concentration that gives 50% inhibition – in assay [4] worked out at 3.14 µM.

For `N#Cc1cnn2c1nc(O)c1cccnc12`, in assay [1], the inhibition is 20.1%.

`N#Cc1cnn2c1nc(O)c1ccc(C(F)(F)F)cc12`: the inhibition in assay [1] was -0.35%.

For the molecule `Cc1nn2c(nc(O)c3cccnc32)c1C#N`, 0.41 µM corresponded to half-maximal inhibition in assay [4] (IC50). Also, the inhibition in assay [1] came to 88.8%.

Consider `Oc1ccccc1-c1ccn(-c2nccc(N3CCOCC3)n2)n1`, for which the inhibition in assay [2] was 73.6%; in assay [3], 84.1%; in assay [1], 99.7%; in assay [5], 90.7%.

Turning to `N#Cc1cnn2c1nc(O)c1ccc(N)cc12`, the inhibition in assay [1] is -2.25%.

As for `CS(=O)(=O)c1ccc2c(O)nc3c(C#N)cnn3c2c1`, the inhibition in assay [1] was found to be 9.63%.

The molecule `N#Cc1cnn2c1ncc1cccnc12` yielded an IC50 in assay [4] of 4.03 µM. The inhibition in assay [1] came out at 85.1%.

For `Cc1ccc2c(O)nc3c(C#N)cnn3c2n1`, in assay [1], the inhibition came to 21.9%.

On to `N#Cc1cnn2c1nc(O)c1ccncc12`, for which the inhibition in assay [1] came out at 68.1%.

For `N#Cc1cnn2c1nc(O)c1ccccc12`, the inhibition in assay [1] was determined as 9.03%.

Turning to `N#Cc1cnn2c1nc(O)c1cc([N+](=O)[O-])cnc12`, in assay [1], the inhibition was determined as 1.91%.

In the case of `N#Cc1cnn2c1nc(O)c1cnccc12`, the inhibition in assay [1] came to 16.4%.

Regarding `Cc1nc2c(C#N)cnn2c2ncccc12`, the inhibition in assay [1] worked out at 22.9%.

Consider `N#Cc1cnn2c1nc(O)c1ccc(C(F)(F)F)nc12`, for which the inhibition in assay [1] came to 10.4%.

As to `N#Cc1cnn2c1nc(O)c1ncccc12`, the inhibition in assay [1] came to 5.26%.

Regarding `N#Cc1c(-c2ccccc2)nn2c1nc(O)c1cccnc12`, the inhibition in assay [1] is 23.6%.

In the case of `CCc1nn2c(nc(O)c3cccnc32)c1C#N`, half-maximal inhibition in assay [4] (IC50) required 1.85 µM. In addition, the inhibition in assay [1] was determined as 78.1%.

Turning to `N#Cc1cnn2c1nc(O)c1ccc([N+](=O)[O-])cc12`, the inhibition in assay [1] came to 4.75%.
